The results in this text go back to article PMC4747340, “A new class of small molecule estrogen receptor-alpha antagonists that overcome anti-estrogen resistance” (Oncotarget, 2015).

Test [1] has as its target T1, estrogen receptor-alpha (ER) (Homo sapiens, UniProt P03372).
T1 sequence (P03372 1-595): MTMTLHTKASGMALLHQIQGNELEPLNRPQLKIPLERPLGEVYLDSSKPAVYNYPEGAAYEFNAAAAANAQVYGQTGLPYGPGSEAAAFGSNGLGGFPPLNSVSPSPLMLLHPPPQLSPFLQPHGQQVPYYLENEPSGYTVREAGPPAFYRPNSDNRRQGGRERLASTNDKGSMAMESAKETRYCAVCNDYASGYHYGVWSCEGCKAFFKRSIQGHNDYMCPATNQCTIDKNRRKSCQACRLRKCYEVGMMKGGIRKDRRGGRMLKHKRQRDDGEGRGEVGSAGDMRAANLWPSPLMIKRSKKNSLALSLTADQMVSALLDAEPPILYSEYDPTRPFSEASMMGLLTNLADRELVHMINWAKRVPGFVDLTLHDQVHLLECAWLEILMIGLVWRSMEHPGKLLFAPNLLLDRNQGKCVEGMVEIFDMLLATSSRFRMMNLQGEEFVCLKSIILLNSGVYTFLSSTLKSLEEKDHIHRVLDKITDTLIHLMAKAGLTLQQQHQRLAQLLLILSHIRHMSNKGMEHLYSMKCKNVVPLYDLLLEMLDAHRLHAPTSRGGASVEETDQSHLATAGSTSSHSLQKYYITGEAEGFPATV
Kind of test: ER activity, ERE-TK-Luc reporter, in MCF-7 cells. The test is classed as cell-based. Also on record: MCF-7 cells in 24-well dishes were transfected overnight with the ERE-TK-Luc reporter plasmid; endogenous in cells; host or cells: MCF-7. The note with it: for IC50: read-out: IC50 for inhibition of E2-stimulated ER activity. The protocol:
For MCF-7, luciferase activity is expressed as a fold-change relative to the no E2 control. For LCC9, luciferase activity is expressed relative to the control without the reporter present. Values plotted are means ± SEMs of four replicate wells. The data shown in each panel are representative of three independent experiments.
The cells were then treated ± 17β-estradiol (E2, 10 nM) and with the indicated compound (@ 1 μM or 20 μM) or vehicle only (DMSO) for 24 hr and assayed for luciferase activity. Luciferase activity is expressed as a fold-change relative to the no E2 control. The data shown are representative of three independent experiments.
Subconfluent cells in 24-well dishes were transfected overnight with 0.25 μg of each indicated vector plus the ERE-TK-Luc reporter in serum-free DMEM containing Lipofectamine2000 (Life Technologies, Washington, DC). Total transfected DNA was kept constant by addition of control vector. The cells were washed, incubated in phenol red-free DMEM containing 5% charcoal-stripped serum (obtained from the Tissue Culture Shared Resource) (0.2 ml/well) ± E2 (10 nM) ± the indicated compound for 24-hr, and harvested for luciferase assays. For each assay condition was tested in quadrupicate. To monitor the transfection efficiency, cultures were co-transfected with plasmid pRSV-β-gal (Promega, Madison, WI) to visualize transfected cells by X-gal staining.

Test [2] has as its system cathepsin D. The experiment in a line: Western blotting of cathepsin D (E2/ER-regulated gene) in MCF-7 cells. The test is classed as cell-based, human. The conditions noted are these: for E2-stimulated expression of cathepsin D: MCF-7, E2 10 nM, 24 hr; for cathepsin D levels, compound alone: MCF-7, no E2, 24 hr. As to the method:
MCF-7 cells in DMEM plus 5% CSS were subjected to the indicated treatment(s) for 24-hr and then harvested for Western blotting to detect cathepsin D or actin (control for loading and transfer). B., D. LCC9 cells were treated with vehicle only (DMSO) or the indicated compound for 24-hr and then harvested for Western blotting for cathepsin D and actin. The data shown in each panel are representative of three independent experiments.
After the indicated cell treatment(s), the cells were harvested, and whole-cell lysates were prepared using RIPA buffer (Santa Cruz). Equal aliquots of whole-cell protein (either 100 μg unprecipitated whole-cell lysate or one half of the precipitated protein from 500-μg whole-cell lysate) were electrophoresed on 4-12% SDS-polyacrylamide gradient gels, transferred to nitrocellulose membranes (Millipore, Bedford, MA), and blotted using primary antibodies against BRCA1 (C-20, rabbit polyclonal, 1:200 dilution; Santa Cruz), cathepsin D (R-20, goat polyclonal, 1:300; Santa Cruz), ER (F10, mouse monoclonal, 1:500; Santa Cruz), or actin (goat polyclonal, sc-1615, 1:400; Santa Cruz). The membranes were blotted with the appropriate secondary antibodies (1:1000; Santa Cruz), and the blotted proteins were visualized using an […] detection system (Amersham Biosciences), with colored markers (Bio-Rad Laboratories, Hercules, CA) as molecular size standards.
Background: A western blot detects proteins with antibodies after separation by electrophoresis.

Test [3] has as its target T2, ER/ERE complex (Homo sapiens, UniProt P03372).
T2 construct: MCF-7 cells in 24-well dishes were transfected overnight with the ERE-TK-Luc reporter plasmid; endogenous in cells; host or cells: MCF-7
T2 sequence (P03372 1-595): T1 sequence (P03372 1-595)
Kind of test: EMSA and supershift assays of ER binding to consensus ERE, MCF-7 nuclear extracts. The test is classed as biochemical. The note with it: for ER/ERE complex in EMSA, compound added directly to nuclear extracts: 1-5 μM added to MCF-7 nuclear extracts, compared with pre-incubation of cells; for interaction of ER with a model ERE oligonucleotide (EMSA, supershift): MCF-7 cells. The protocol:
After the 24-hr incubation, the cells were harvested, nuclear extracts were prepared, and the extracts were reacted with labeled “hot” ERE and an excess of unlabeled “cold” ERE, as indicated, prior to electrophoresis. In panel B, the experiment was performed similarly except that an anti-ER antibody was added to generate a “supershift”. C., D. Experiments were performed similarly to those above, except that different concentrations of compound (as indicated) were added directly to the reaction mixture containing nuclear extract and were not pre-incubated with whole cells. […] E., F. These experiments were performed similarly to those in C and D, except that anti-ER antibody was added to the reaction mixture to reveal “supershifted” bands. […] The data shown in each panel are representative of three independent experiments.
Double-stranded oligonucleotides containing a consensus ERE were obtained from Santa Cruz Biotechnology (sc-2858). Sequences of the oligonucleotides were: sense 5′-[…]-3′ and antisense: 3′-[…]-5′. Oligonucleotides were 3′-end-labeled using a Biotin Kit (Thermo Scientific, Rockford, IL). DNA binding reactions were carried out using nuclear extracts of MCF-7 cells that were treated ± E2 (10 nM) and ± the indicated compound for 24-hr. Treated cells were harvested and nuclear extracts were prepared using the NE-PER Nuclear and Cytoplasmic Extraction Reagents (Thermo Scientific). Aliquots of nuclear extract protein (2 μg) were incubated with gel-shift binding buffer (LightShift Chemiluminescent EMSA Kit, Thermo Scientific) for 30 min at 25°C. After incubation, 40 fmol of biotin-labeled ERE-containing oligonucleotides were added, and the mixture was re-incubated for 30 min at 25°C. Reaction products were loaded electrophoresed on a 6% DNA retardation gel (Invitrogen) and transferred onto a nylon membrane. Biotin-labeled DNA was detected using the Chemiluminescent Nucleic Acid Detection Module (Thermo Scientific). To test the specificity of binding, a 40-fold excess of unlabeled (“cold”) oligonucleotide was added to one of the reactions along with the biotin-labeled (“hot”) oligonucleotide. Note: In some experiments, the compound was added to the reaction mixture after the nuclear extract was prepared. Supershift assays were performed as above, except that before addition of the hot ERE oligonucleotide, nuclear extracts were incubated with 2-μg of anti-ER IgG (rabbit polyclonal, HC-20, Santa Cruz) for 30 min at 25°C.

Values joined by “and” are separate entries in the source; they are usually repeats but may differ in a detail not shown here. Equal entries are not always repeated. Where two headings read alike, the source gives them in different places.

In the case of `O=C(c1cc(Br)ccc1O)c1cc(Br)ccc1O` [4631-P/1], the inhibition (commonly the drop in the measured response relative to a control, in per cent) at 1 µM in test [1] (MCF7, MCF-7, E2 10 nM, compound 1 μM, 24 hr, read-out: inhibition of E2-stimulated ER activity at 1 μM) was at least 50%. In addition, the concentration for half-maximal inhibition (IC50) – broadly, the concentration that inhibits the measured activity by half – in test [1] (MCF-7, E2 10 nM, 24 hr) was at most 1000 nM. In test [2], the “E2-stimulated expression of cathepsin D” value was “blocked E2-stimulated expression of cathepsin D” and the “cathepsin D levels, compound alone” value is reported as “little or no effect”. In test [3], the “ER/ERE complex in EMSA, compound added directly to nuclear extracts” value is listed as “greater effect” and the “interaction of ER with a model ERE oligonucleotide (EMSA, supershift)” value is “disrupt the interaction of ER with a model ERE oligonucleotide”. Further, the “ER/ERE complex in EMSA, cells pre-incubated with compound” value in test [3] (MCF-7 pre-incubated with E2 10 nM and compound 1 or 20 μM for 24 hr) was “dose-dependent reduction of the ER/ERE complex”.

With `O=C(CC(c1ccccc1)N1CCCCC1)c1ccccc1` (stereo not shown) [35446-L/1, 1,3-diphenyl-3-(piperidin-1-yl)propan-1-one], the inhibition at 1 µM in test [1] (MCF7, read-out: inhibition of E2-stimulated ER activity at 1 μM) is at least 50%. Also, in test [1] (MCF-7, E2 10 nM, 24 hr), the IC50 is ≤ 1000 nM and 800 nM. In addition, in test [2], the “E2-stimulated expression of cathepsin D” value is “blocked E2-stimulated expression of cathepsin D” and the “cathepsin D levels, compound alone” value is recorded as “little or no effect”. In test [3], the “ER/ERE complex in EMSA, compound added directly to nuclear extracts” value is “greater effect” and the “interaction of ER with a model ERE oligonucleotide (EMSA, supershift)” value was “disrupt the interaction of ER with a model ERE oligonucleotide”.
